Legend:
corn = test: Test B pre/postemergence corn; type: in vivo, Zea mays
Method in brief: (§1)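 Response is a visual 0-to-10 score relative to untreated plants, where 0 means no effect and 10 means complete control, taken twelve to sixteen days after application. Treatments went onto soil at planting and onto foliage of 1- to 4-leaf plants, using a surfactant-containing non-phytotoxic solvent.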

wild oat = test: Test B pre/postemergence wild oat; type: in vivo, Avena fatua
Method in brief: as §1

surinam grass = test: Test B pre/postemergence surinam grass; type: in vivo, Brachiaria decumbens
Method in brief: as §1

bedstraw = test: Test B pre/postemergence bedstraw; type: in vivo, Galium aparine
Method in brief: as §1

blackgrass = test: Test B pre/postemergence blackgrass; type: in vivo, Alopecurus myosuroides
Method in brief: as §1

rape = test: Test B pre/postemergence rape; type: in vivo, Brassica napus
Method in brief: as §1

crabgrass = test: Test B pre/postemergence crabgrass; type: in vivo, Digitaria sanguinalis
Method in brief: as §1

giant foxtail = test: Test B pre/postemergence giant foxtail; type: in vivo, Setaria faberii
Method in brief: as §1

morningglory = test: Test B pre/postemergence morningglory; type: in vivo, Ipomoea hederacea
Method in brief: as §1

cocklebur = test: Test B pre/postemergence cocklebur; type: in vivo, Xanthium strumarium
Method in brief: as §1

wheat = test: Test B pre/postemergence wheat; type: in vivo, Triticum aestivum
Method in brief: as §1

soybean = test: Test B pre/postemergence soybean; type: in vivo, Glycine max
Method in brief: as §1

velvetleaf = test: Test B pre/postemergence velvetleaf; type: in vivo, Abutilon theophrasti
Method in brief: as §1

purple nutsedge = test: Test B pre/postemergence purple nutsedge; type: in vivo, Cyperus rotundus
Method in brief: as §1

pigweed = test: Test B pre/postemergence pigweed; type: in vivo, Amaranthus retroflexus
Method in brief: as §1

[1] = Postemergence, Rate 250 g/ha, scale 0 to 10
[2] = Postemergence, Rate 500 g/ha, scale of 0 to 10 where 0 is no effect and 10 is complete control
[3] = Preemergence, Rate 62 g/ha, scale of 0 to 10 where 0 is no effect and 10 is complete control
[4] = Preemergence, Rate 125 g/ha, scale of 0 to 10 where 0 is no effect and 10 is complete control
[5] = Preemergence, Rate 250 g/ha, scale 0 to 10, 0 is no effect, 10 is complete control
[6] = Preemergence, Rate 500 g/ha, scale 0 to 10, 0 is no effect, 10 is complete control
[7] = Rate 62 g/ha, Postemergence, scale 0 to 10 (0 no effect, 10 complete control)
[8] = Rate 125 g/ha, Postemergence, scale 0 to 10, 0 is no effect, 10 is complete control

CC(C)N(C(=O)n1oc(=O)n(C(C)Cl)c1=O)c1ccccc1 (stereo not shown) [Compound 438]
Corn plant response rating (corn; [1]): 0 | Corn plant response rating (corn; [2]): 3 | Plant response rating, Corn (corn; [3]): 0 | Plant response rating, Corn (corn; [4]): 0 | Corn plant response rating (corn; [5]): 0 | Corn plant response rating (corn; [6]): 0 | Corn plant response rating (corn; [7]): 0 | Corn plant response rating (corn; [8]): 0 | Wild oats plant response rating (wild oat; [1]): 0 | Wild oats plant response rating (wild oat; [2]): 0 | Plant response rating, Wild oats (wild oat; [3]): 0 | Plant response rating, Wild oats (wild oat; [4]): 0 | Wild oats plant response rating (wild oat; [5]): 1 | Wild oats plant response rating (wild oat; [6]): 3 | Wild oats plant response rating (wild oat; [7]): 0 | Wild oats plant response rating (wild oat; [8]): 0 | B. signalgrass plant response rating (surinam grass; Postemergence, Rate 250 g/ha, scale 0 to 10, 0 no effect, 10 complete control): 0 | B. signalgrass plant response rating (surinam grass; [2]): 0 | Plant response rating, B. signalgrass (surinam grass; [3]): 0 | Plant response rating, B. signalgrass (surinam grass; [4]): 0 | B. signalgrass plant response rating (surinam grass; [5]): 0 | B. signalgrass plant response rating (surinam grass; [6]): 2 | B. signalgrass plant response rating (surinam grass; [7]): 0 | B. signalgrass plant response rating (surinam grass; [8]): 0 | Bedstraw plant response rating (bedstraw; [1]): 0 | Bedstraw plant response rating (bedstraw; [5]): 0 | Bedstraw plant response rating (bedstraw; [7]): 0 | Bedstraw plant response rating (bedstraw; [8]): 0 | Blackgrass plant response rating (blackgrass; [1]): 2 | Blackgrass plant response rating (blackgrass; [2]): 2 | Plant response rating, Blackgrass (blackgrass; [3]): 0 | Plant response rating, Blackgrass (blackgrass; [4]): 0 | Blackgrass plant response rating (blackgrass; [5]): 2 | Blackgrass plant response rating (blackgrass; [6]): 3 | Blackgrass plant response rating (blackgrass; [7]): 0 | Blackgrass plant response rating (blackgrass; [8]): 0 | Rape plant response rating (rape; [1]): 0 | Rape plant response rating (rape; [2]): 0 | Plant response rating, Rape (rape; [3]): 0 | Plant response rating, Rape (rape; [4]): 0 | Rape plant response rating (rape; [5]): 0 | Rape plant response rating (rape; [6]): 2 | Rape plant response rating (rape; [7]): 0 | Rape plant response rating (rape; [8]): 0 | Crabgrass plant response rating (crabgrass; [1]): 8 | Crabgrass plant response rating (crabgrass; [2]): 9 | Plant response rating, Crabgrass (crabgrass; [3]): 3 | Plant response rating, Crabgrass (crabgrass; [4]): 6 | Crabgrass plant response rating (crabgrass; [5]): 9 | Crabgrass plant response rating (crabgrass; [6]): 10 | Crabgrass plant response rating (crabgrass; [7]): 2 | Crabgrass plant response rating (crabgrass; [8]): 4 | Giant foxtail plant response rating (giant foxtail; [1]): 9 | Giant foxtail plant response rating (giant foxtail; [2]): 9 | Plant response rating, Giant foxtail (giant foxtail; [3]): 2 | Plant response rating, Giant foxtail (giant foxtail; [4]): 7 | Giant foxtail plant response rating (giant foxtail; [5]): 10 | Giant foxtail plant response rating (giant foxtail; [6]): 10 | Giant foxtail plant response rating (giant foxtail; [7]): 5 | Giant foxtail plant response rating (giant foxtail; [8]): 5 | Morningglory plant response rating (morningglory; [1]): 9 | Morningglory plant response rating (morningglory; [2]): 10 | Plant response rating, Morningglory (morningglory; [3]): 0 | Plant response rating, Morningglory (morningglory; [4]): 0 | Morningglory plant response rating (morningglory; [5]): 0 | Morningglory plant response rating (morningglory; [6]): 2 | Morningglory plant response rating (morningglory; [7]): 4 | Morningglory plant response rating (morningglory; [8]): 8 | Cocklebur plant response rating (cocklebur; [1]): 3 | Cocklebur plant response rating (cocklebur; [2]): 3 | Plant response rating, Cocklebur (cocklebur; [3]): 0 | Plant response rating, Cocklebur (cocklebur; [4]): 0 | Cocklebur plant response rating (cocklebur; [5]): 0 | Cocklebur plant response rating (cocklebur; [6]): 0 | Cocklebur plant response rating (cocklebur; [7]): 0 | Cocklebur plant response rating (cocklebur; [8]): 0 | Wheat plant response rating (wheat; [1]): 0 | Wheat plant response rating (wheat; [2]): 0 | Plant response rating, Wheat (wheat; [3]): 0 | Plant response rating, Wheat (wheat; [4]): 0 | Wheat plant response rating (wheat; [5]): 0 | Wheat plant response rating (wheat; [6]): 0 | Wheat plant response rating (wheat; [7]): 0 | Wheat plant response rating (wheat; [8]): 0 | Soybean plant response rating (soybean; [1]): 2 | Soybean plant response rating (soybean; [2]): 6 | Plant response rating, Soybean (soybean; [3]): 0 | Plant response rating, Soybean (soybean; [4]): 0 | Soybean plant response rating (soybean; [5]): 0 | Soybean plant response rating (soybean; [6]): 2 | Soybean plant response rating (soybean; [7]): 1 | Soybean plant response rating (soybean; [8]): 1 | Velvetleaf plant response rating (velvetleaf; [1]): 0 | Velvetleaf plant response rating (velvetleaf; [2]): 0 | Plant response rating, Velvetleaf (velvetleaf; [3]): 0 | Plant response rating, Velvetleaf (velvetleaf; [4]): 0 | Velvetleaf plant response rating (velvetleaf; [5]): 5 | Velvetleaf plant response rating (velvetleaf; [6]): 6 | Velvetleaf plant response rating (velvetleaf; [7]): 0 | Velvetleaf plant response rating (velvetleaf; [8]): 0 | Nutsedge plant response rating (purple nutsedge; [1]): 0 | Nutsedge plant response rating (purple nutsedge; [2]): 0 | Plant response rating, Nutsedge (purple nutsedge; [3]): 0 | Plant response rating, Nutsedge (purple nutsedge; [4]): 0 | Nutsedge plant response rating (purple nutsedge; [5]): 0 | Nutsedge plant response rating (purple nutsedge; [7]): 0 | Nutsedge plant response rating (purple nutsedge; [8]): 0 | Redroot pigweed plant response rating (pigweed; [1]): 0 | Redroot pigweed plant response rating (pigweed; [2]): 0 | Plant response rating, Redroot pigweed (pigweed; [3]): 2 | Plant response rating, Redroot pigweed (pigweed; [4]): 2 | Redroot pigweed plant response rating (pigweed; [5]): 5 | Redroot pigweed plant response rating (pigweed; [6]): 10 | Redroot pigweed plant response rating (pigweed; [7]): 0 | Redroot pigweed plant response rating (pigweed; [8]): 0

— US6737383B1, “Herbicidal oxadiazolidines” (priority 1999, dated 2004)
